# “Also recorded” adds a separate entry of the source.
# Assays:
# [1] = test system: streptozotocin-diabetic rats; experiment: Hypoglycemic effects in streptozotocin-diabetic rats; type: in vivo, male Wistar rats
# Protocol: (§1) Four days later, the rats with serum glucose levels of between 400 and 500 mg/dl were used. After being fasted for 4 hrs, groups of 5 diabetic rats were orally administered with the compounds of the present invention or gliclazide in a dose of 100 mg/kg. Blood samples were collected from the orbital vein before and 6 hrs after the administration. Serum glucose levels were determined by the enzymatic methods with an autoanalyzer (Cobas Fara ® , Roche).
# [2] = test system: ICR strain mice; experiment: Acute toxicity in mice; type: in vivo; settings: oral dose of 1 g/kg, one-week period after the administration
# Source text: Hydantoin derivatives of the present invention were examined for acute toxicity.
# [3] = test system: streptozotocin-diabetic rats; experiment: Ketone body lowering effects in streptozotocin-diabetic rats; type: in vivo; settings: STZ-diabetic rats; for Lowering rate of serum total ketone body (%): 100 mg/kg orally for 2 weeks, blood 6 hrs after the last administration
# Protocol: as §1, with “Diabetic rats were produced according to the method of Junod et al. (A. Junod et al., J. Clin. Invest., 48, 2129 (1969)). Briefly, male Wistar rats were given 26.5 mg/kg of streptozotocin (STZ) intravenously. Four” for “Four”
# (§2) Diabetic rats were produced according to the method described previously. Groups of 5 diabetic rats were orally administered with compound 20 or 23 of the present invention for 2 weeks. The rats were deprived of food 4 hrs before the last administration, and 6 hrs after the last administration, blood samples were collected from the orbital vein. Serum total ketone body (KB) levels were determined by the enzymatic method with an autoanalyzer (Cobas Fara ® , Roche). In this experiment, serum total ketone body levels in streptozotocin - diabetic rats increased by 92 % of normal rats in the mean value.
# [4] = test system: normal rats; experiment: Hypoglycemic effects in normal rats; type: in vivo, male Wistar rats
# Protocol: Groups of 5 male Wistar rats, after being fasted for 4 hrs, were orally administered with compound 20 or 23 of the present invention or gliclazide. Blood samples were collected from the orbital vein before, 1 hr and 6 hrs after the administration. Serum glucose levels were determined by the enzymatic method with an autoanalyser (Cobas Fara ® , Roche).
# [5] = test system: streptozotocin - diabetic rats; experiment: Hypolipidemic effects in streptozotocin-diabetic rats; type: in vivo; settings: STZ-diabetic rats; for Lowering rate of serum lipids (%) CHOL / Lowering rate of serum lipids (%) NEFA / Lowering rate of serum lipids (%) TG: 100 mg/kg orally for 2 weeks; for Lowering rate of serum lipids (%) CHOL: serum cholesterol 6 hrs after the last administration; for Lowering rate of serum lipids (%) NEFA: serum non-esterified fatty acid 6 hrs after the last administration; for Lowering rate of serum lipids (%) TG: serum triglyceride 6 hrs after the last administration
# Protocol: as §1, with “Diabetic rats were produced according to the method of Junod et al. (A. Junod et al., J. Clin. Invest., 48, 2129 (1969)). Briefly, male Wistar rats were given 26.5 mg/kg of streptozotocin (STZ) intravenously. Four” for “Four”
# as §2, with “invention at a dose of 100 mg/kg” for “invention”, “triglyceride (TG), non - esterified fatty acid (NEFA) and cholesterol (CHOL)” for “total ketone body (KB)”, “experiment, each parameters of” for “experiment,”, “lipids” for “total ketone body levels”, “40” for “92”
# [6] = 100 mg/kg p.o., 1 hour after administration
# [7] = 100 mg/kg p.o., 6 hours after administration
molecule,measurement,setting,value
1-(benzo[b]isothiazol-3-ylsulfonyl)hydantoin [Compound 15],Lowering rate of serum glucose (%),"[1]; STZ-diabetic rats fasted 4 hrs, 100 mg/kg orally, 6 hrs after administration vs before",23.6%
"O=C1CN(S(=O)(=O)c2cc3ccc(Cl)cc3cc2Cl)C(=O)N1 [Compound 2, 1-(3,6-dichloronaphthalen-2-ylsulfonyl)hydantoin]",acute toxicity,[2],no change was observed
"O=C1CN(S(=O)(=O)c2cc3ccccc3s2)C(=O)N1 [Compound 8, 1-(benzo[b]thien-2-ylsulfonyl)hydantoin]",acute toxicity,[2],no change was observed
"O=C1CN(S(=O)(=O)c2cc3ccccc3o2)C(=O)N1 [Compound 9, 1-(benzo[b]furan-2-ylsulfonyl)hydantoin]",acute toxicity,[2],no change was observed
"O=C1CN(S(=O)(=O)c2cc(Cl)sc2Cl)C(=O)N1 [Compound 16, 1-(2,5-dichlorothien-3-ylsulfonyl)hydantoin]",acute toxicity,[2],no change was observed
"O=C1CN(S(=O)(=O)c2oc3ccccc3c2Br)C(=O)N1 [Compound 20, 1-(3-bromobenzo[b]furan-2-ylsulfonyl)hydantoin]",lowering of serum total ketone body levels (in words),[3],lowering activity
same,Lowering rate of serum total ketone body (%),[3],50%
same,influence on serum glucose level of normal rats (in words),[4],lesser influences
same,Lowering rate of serum glucose (%),[4]; [6],13%
same,Lowering rate of serum glucose (%),[4]; [7],6%
same,"lowering of serum triglyceride, non - esterified fatty acid and cholesterol levels (in words)",[5],lowering activities
same,Lowering rate of serum lipids (%) CHOL,[5],31%
same,Lowering rate of serum lipids (%) NEFA,[5],35%
same,Lowering rate of serum lipids (%) TG,[5],36%
same,acute toxicity,[2],no change was observed
"O=C1CN(S(=O)(=O)c2oc3ccccc3c2Cl)C(=O)N1 [Compound 23, 1-(3-chlorobenzo[b]furan-2-ylsulfonyl)hydantoin]",lowering of serum total ketone body levels (in words),[3],lowering activity
same,Lowering rate of serum total ketone body (%),[3],43%
same,influence on serum glucose level of normal rats (in words),[4],lesser influences
same,Lowering rate of serum glucose (%),[4]; [6],9%
same,Lowering rate of serum glucose (%),[4]; [7],0%
same,"lowering of serum triglyceride, non - esterified fatty acid and cholesterol levels (in words)",[5],lowering activities
same,Lowering rate of serum lipids (%) CHOL,[5],30%
same,Lowering rate of serum lipids (%) NEFA,[5],18%
same,Lowering rate of serum lipids (%) TG,[5],43%
same,acute toxicity,[2],no change was observed
"Cc1ccc(S(=O)(=O)NC(=O)NN2CC3CCCC3C2)cc1 (centres unmarked) [Compound A, gliclazide, reference compound]",influence on serum glucose level of normal rats (in words),[4],significantly lowered; also recorded: remarkable hypoglycemic activity
same,Lowering rate of serum glucose (%),"[4]; 10 mg/kg p.o., 1 hour after administration",57%
same,Lowering rate of serum glucose (%),"[4]; 10 mg/kg p.o., 6 hours after administration",1%
same,hypoglycemic activity (in words),[1]; STZ-diabetic rats / experimental animal model of diabetes mellitus,less potent hypoglycemic activity than all compounds of the present invention

# Reference: patent EP0444546B1, “Hydantoin derivatives for use as hypoglycemic and/or hypolipidemic agents” (MOCHIDA PHARMACEUTICAL CO., LTD., priority 1990, dated 1991)
